US12698507B2, “Methods and compositions for conferring and/or enhancing herbicide tolerance using protoporphyrinogen IX oxidase of various cyanobacteria or variant thereof” (FarmHannong Co., Ltd., priority 2019, dated 2026)
Read-outs that look alike come from different tables or passages of the source.

Legend:
[1] = test system: PPO-deficient BT3 E. coli (ΔPPO) transformed with CyPPO18 variant L327T+F360M (Thermosynechococcus vulcanus NIES-2134, SEQ ID NO: 3); test: Herbicide tolerance test in E. coli, CyPPO18 L327T+F360M; type: cell-based; parameters: key to the marks not given beside the values; conditions: LB agar, 0 to 2,000 μM herbicide, 37° C., 16-20 hours
Source text: (§1) To enhance the PPO-inhibiting herbicide resistance of CyPPO19 and CyPPO18, PPO variant genes of the above example 2 were constructed. They were transformed to BT3 (ΔPPO) strain which is deficient of PPO activity and cultured in LB media with PPO-inhibiting herbicide, thereby examining whether growth of transformed BT3 was not inhibited.
(§2) BT3 competent cells were transformed with the pET303-CyPPO19 (wild type), pET303-CyPPO18 (wild type) plasmids, and those with a mutation(s) constructed (refer to example 2) via heat shock method, and were cultured in LB agar media containing ampicillin.
(§3) Single colony transformed with each CyPPO gene was cultured in 3 mL of LB broth (LPSS) containing ampicillin for more than 12 hours, and then was subcultured in LB broth until absorbance (OD600) reached 0.5 to 1. Then, it was diluted with LB broth to OD600=0.5. Again, the diluted solution was serially diluted 4 times by a factor of one tenth. […]
(§4) Then, 10 μL of each diluted solution of E. coli was dropped on the plate and cultured at 37° C. under dark for 16-20 hours. PPO-inhibiting herbicide resistance was evaluated with the extent of E. coli growth containing each gene was observed.
(§5) The extent of herbicide resistance was evaluated by the relative growth of variants to that of wild type, and listed in Tables 9 and 10 and FIGS. 3 to 32. […]

[2] = test system: PPO-deficient BT3 E. coli (ΔPPO) transformed with CyPPO19 variant R89A+F360L (Thermosynechococcus elongatus PKUAC-SCTE542, SEQ ID NO: 1); test: Herbicide tolerance test in E. coli, CyPPO19 R89A+F360L; type: cell-based; conditions: LB agar, 0 to 2,000 μM herbicide, 37° C., 16-20 hours
Source text: as §1, §2, §3, §4, §5

[3] = target: Thermosynechococcus vulcanus NIES-2134 protoporphyrinogen IX oxidase CyPPO18 (SEQ ID NO: 3) variant V305M (MBP fusion) (Thermosynechococcus vestitus, UniProt Q8DLV2, V305M); test: PPO enzyme inhibition assay (IC50 for herbicides), CyPPO18 V305M fused to MBP; type: biochemical; conditions: 50 μM protoporphyrinogen IX, pH 7.5, room temperature, 30 min
[4] = test system: PPO-deficient BT3 E. coli (ΔPPO) transformed with CyPPO19 variant V165C+F360M (Thermosynechococcus elongatus PKUAC-SCTE542, SEQ ID NO: 1); test: Herbicide tolerance test in E. coli, CyPPO19 V165C+F360M; type: cell-based; conditions: LB agar, 0 to 2,000 μM herbicide, 37° C., 16-20 hours
Source text: as §1, §2, §3, §4, §5

[5] = test system: PPO-deficient BT3 E. coli (ΔPPO) transformed with CyPPO19 variant R89A+F360T (Thermosynechococcus elongatus PKUAC-SCTE542, SEQ ID NO: 1); test: Herbicide tolerance test in E. coli, CyPPO19 R89A+F360T; type: cell-based; conditions: LB agar, 0 to 2,000 μM herbicide, 37° C., 16-20 hours
Source text: as §1, §2, §3, §4, §5

[6] = test system: PPO-deficient BT3 E. coli (ΔPPO) transformed with CyPPO19 variant V165C+F360V (Thermosynechococcus elongatus PKUAC-SCTE542, SEQ ID NO: 1); test: Herbicide tolerance test in E. coli, CyPPO19 V165C+F360V; type: cell-based; conditions: LB agar, 0 to 2,000 μM herbicide, 37° C., 16-20 hours
Source text: as §1, §2, §3, §4, §5

[7] = test system: PPO-deficient BT3 E. coli (ΔPPO) transformed with CyPPO18 variant V305M+F360I (Thermosynechococcus vulcanus NIES-2134, SEQ ID NO: 3); test: Herbicide tolerance test in E. coli, CyPPO18 V305M+F360I; type: cell-based; parameters: key to the marks not given beside the values; conditions: LB agar, 0 to 2,000 μM herbicide, 37° C., 16-20 hours
Source text: as §1, §2, §3, §4, §5

[8] = target: Thermosynechococcus vulcanus NIES-2134 protoporphyrinogen IX oxidase CyPPO18 (SEQ ID NO: 3) variant R89A (MBP fusion) (Thermosynechococcus vestitus, UniProt Q8DLV2, R89A); test: PPO enzyme inhibition assay (IC50 for herbicides), CyPPO18 R89A fused to MBP; type: biochemical; conditions: 50 μM protoporphyrinogen IX, pH 7.5, room temperature, 30 min
[9] = target: Thermosynechococcus elongatus PKUAC-SCTE542 protoporphyrinogen IX oxidase CyPPO19 (SEQ ID NO: 1) variant A167C (MBP fusion) (Thermosynechococcus sichuanensis, UniProt A0A7D6JSC1, A167C); test: biochemical
[10] = target: Thermosynechococcus elongatus PKUAC-SCTE542 protoporphyrinogen IX oxidase CyPPO19 (SEQ ID NO: 1) variant A167I (MBP fusion) (Thermosynechococcus sichuanensis, UniProt A0A7D6JSC1, A167I); test: biochemical; conditions: 50 μM protoporphyrinogen IX, pH 7.5, room temperature, 30 min, 10,000 means equivalent to or higher
Sequence of Thermosynechococcus elongatus PKUAC-SCTE542 protoporphyrinogen IX oxidase CyPPO19 (SEQ ID NO: 1) variant A167I (MBP fusion) (A0A7D6JSC1 entry or part of it A167I): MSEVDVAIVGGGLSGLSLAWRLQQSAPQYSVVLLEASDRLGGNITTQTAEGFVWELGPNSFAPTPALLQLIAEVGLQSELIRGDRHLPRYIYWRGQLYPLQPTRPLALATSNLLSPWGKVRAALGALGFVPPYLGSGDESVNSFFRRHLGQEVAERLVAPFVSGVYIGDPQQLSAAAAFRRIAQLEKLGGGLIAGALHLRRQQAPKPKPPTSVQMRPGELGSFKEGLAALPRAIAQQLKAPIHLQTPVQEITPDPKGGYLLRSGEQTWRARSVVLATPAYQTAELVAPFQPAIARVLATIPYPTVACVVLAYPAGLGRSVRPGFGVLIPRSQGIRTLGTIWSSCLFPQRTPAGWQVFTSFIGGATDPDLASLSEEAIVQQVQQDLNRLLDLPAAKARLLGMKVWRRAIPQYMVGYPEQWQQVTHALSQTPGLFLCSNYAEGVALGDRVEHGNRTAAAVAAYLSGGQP

Sequence of Thermosynechococcus vulcanus NIES-2134 protoporphyrinogen IX oxidase CyPPO18 (SEQ ID NO: 3) variant R89A (MBP fusion) (Q8DLV2 entry or part of it R89A): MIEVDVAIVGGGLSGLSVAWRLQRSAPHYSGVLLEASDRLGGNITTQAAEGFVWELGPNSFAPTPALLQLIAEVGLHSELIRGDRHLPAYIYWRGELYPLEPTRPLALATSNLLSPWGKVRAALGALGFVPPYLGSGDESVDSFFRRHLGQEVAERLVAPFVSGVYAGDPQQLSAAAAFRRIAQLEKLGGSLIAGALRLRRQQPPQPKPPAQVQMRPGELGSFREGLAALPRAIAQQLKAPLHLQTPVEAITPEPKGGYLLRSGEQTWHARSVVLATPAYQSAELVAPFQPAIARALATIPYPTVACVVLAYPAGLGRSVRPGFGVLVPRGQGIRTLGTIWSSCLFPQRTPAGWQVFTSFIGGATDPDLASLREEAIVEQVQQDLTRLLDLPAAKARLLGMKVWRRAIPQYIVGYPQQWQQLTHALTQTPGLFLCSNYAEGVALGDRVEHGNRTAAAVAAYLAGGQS
Sequence of Thermosynechococcus elongatus PKUAC-SCTE542 protoporphyrinogen IX oxidase CyPPO19 (SEQ ID NO: 1) variant A167C (MBP fusion) (A0A7D6JSC1 entry or part of it A167C): as the sequence (A0A7D6JSC1 entry or part of it A167I) above, with I167C counted along it
Sequence of Thermosynechococcus vulcanus NIES-2134 protoporphyrinogen IX oxidase CyPPO18 (SEQ ID NO: 3) variant V305M (MBP fusion) (Q8DLV2 entry or part of it V305M): as the sequence (Q8DLV2 entry or part of it R89A) above, with A89R, V305M counted along it

Compound | tolerance level (relative growth of variant to wild type) [1] | tolerance level (relative growth of variant to wild type) [2] | IC50 [3] [nM] | tolerance level (relative growth of variant to wild type) [4] | tolerance level (relative growth of variant to wild type) [5] | tolerance level (relative growth of variant to wild type) [6] | tolerance level (relative growth of variant to wild type) [7] | IC50 [8] [nM] | IC50 ([9]; CyPPO19 A167C, 50 μM protoporphyrinogen IX, pH 7.5, room temperature, 30 min) [nM] | IC50 [10] [nM] | IC50 [9] [nM] | IC50 ([10]; read-out: IC50) [nM]
Cc1nn(-c2cc(CC(Cl)C(=O)O)c(Cl)cc2F)c(=O)n1C(F)F (centres unmarked) [Carfentrazone] | ++ | + | 1610 | + | + | + | ++ | 872 | 3530 | ≥ 10000 | – | –
CCOc1cc(Oc2ccc(C(F)(F)F)cc2Cl)ccc1[N+](=O)[O-] [Oxyfluorfen] | ++ | + | 355 | ++ | + | ++ | ++ | 491 | – | – | 649 | 1330
